Reference: patent US10913727B2, “Modulators of the integrated stress pathway” (Calico Life Sciences LLC, priority 2016, dated 2021)

Tested on: HEK293T cells carrying the ATF4 luciferase reporter
Experiment: ATF4-Luc assay, in vitro model of Vanishing Cell White Matter Disease (VWMD)
Type: cell-based
Settings: Homo sapiens, HEK-293T, 1 μg/mL tunicamycin, 7 hours, One Glo luminescence
Procedure: In order to test exemplary compounds of the invention in a cellular context, a stable VWMD cell line was first constructed. The ATF4 reporter was prepared by fusing the human full-length ATF4 5′-UTR (NCBI Accession No. BC022088.2) in front of the firefly luciferase (FLuc) coding sequence lacking the initiator methionine as described in Sidrauski et al (eLife 2013). The construct was used to produce recombinant retroviruses using standard methods and the resulting viral supernatant was used to transduce HEK293T cells, which were then subsequently selected with puromycin to generate a stable cell line.
HEK293T cells carrying the ATF4 luciferase reporter were plated on polylysine coated 384-well plates (Greiner Bio-one) at 30,000 cells per well. Cells were treated the next day with 1 μg/mL tunicamycin and 200 nM of a compound of Formula (I) for 7 hours. Luminescence was measured using One Glo (Promega) as specified by the manufacturer. Cells were maintained in DMEM with L-glutamine supplemented with 10% heat-inactivated FBS (Gibco) and Antibiotic-Antimycotic solution (Gibco).
Table 2 below summarizes the EC50 data obtained using the ATF4-Luc assay for exemplary compounds of the invention.

O=C(COc1ccc(Cl)c(F)c1)NC12CCC(NS(=O)(=O)c3ccc(C(F)(F)F)cc3)(CC1)[C@@H](O)C2 [Compound 663, 2-(4-chloro-3-fluorophenoxy)-N-[(3S)-3-hydroxy-4-{[4-(trifluoromethyl)benzene-1-sulfonyl]amino}bicyclo[2.2.2]octan-1-yl]acetamide]
EC50: 50 to 250 nM

Cc1cc(C(=O)NC23CCC(NC(=O)COc4ccc(Cl)c(Cl)c4)(CC2)[C@@H](O)C3)on1 [Compound 759, N-{(3S)-4-[2-(3,4-dichlorophenoxy)acetamido]-3-hydroxybicyclo[2.2.2]octan-1-yl}-3-methyl-1,2-oxazole-5-carboxamide]
EC50: < 50 nM

O=C(COc1ccc(Cl)c(Cl)c1)NC12CC(NC(=O)c3nc(C4CC4)cs3)(C1)C2 [Compound 697, 4-cyclopropyl-N-{3-[2-(3,4-dichlorophenoxy)acetamido]bicyclo[1.1.1]pentan-1-yl}-1,3-thiazole-2-carboxamide]
EC50: < 50 nM

O=C(COc1ccc(Cl)c(F)c1)NC12CCC(NC(=O)c3cnc4ccccc4n3)(CC1)C(O)C2 (stereo not shown) [Compound 223, N-{4-[2-(4-chloro-3-fluorophenoxy)acetamido]-2-hydroxybicyclo[2.2.2]octan-1-yl}quinoxaline-2-carboxamide]
EC50: 50 to 250 nM

Cn1c(C(=O)NC23CC(NC(=O)COc4ccc(Cl)c(F)c4)(C2)C3)cc2sccc21 [Compound 841, N-{3-[2-(4-chloro-3-fluorophenoxy)acetamido]bicyclo[1.1.1]pentan-1-yl}-4-methyl-4H-thieno[3,2-b]pyrrole-5-carboxamide]
EC50: 250 to 1000 nM

Cn1nc(C(=O)NC23CC(NC(=O)COc4ccc(Cl)c(F)c4)(C2)C3)cc1-c1ccccc1 [Compound 345, N-{3-[2-(4-chloro-3-fluorophenoxy)acetamido]bicyclo[1.1.1]pentan-1-yl}-1-methyl-5-phenyl-1H-pyrazole-3-carboxamide]
EC50: 50 to 250 nM

CCc1cc(C(=O)NC23CC(NC(=O)COc4ccc(Cl)c(F)c4)(C2)C3)n(C)n1 [Compound 254, N-{3-[2-(4-chloro-3-fluorophenoxy)acetamido]bicyclo[1.1.1]pentan-1-yl}-3-ethyl-1-methyl-1H-pyrazole-5-carboxamide]
EC50: < 50 nM

O=C(COc1ccc(Cl)c(F)c1)NC12CC(NC(=O)c3ccc(C4=CCOCC4)nc3)(C1)C2 [Compound 155, N-{3-[2-(4-chloro-3-fluorophenoxy)acetamido]bicyclo[1.1.1]pentan-1-yl}-6-(3,6-dihydro-2H-pyran-4-yl)pyridine-3-carboxamide]
EC50: 1000 to 2000 nM

O=C(COc1ccc(Cl)c(F)c1)NC12CC(NC(=O)c3cc4nccnc4s3)(C1)C2 [Compound 886, N-{3-[2-(4-chloro-3-fluorophenoxy)acetamido]bicyclo[1.1.1]pentan-1-yl}thieno[2,3-b]pyrazine-6-carboxamide]
EC50: 250 to 1000 nM

O=C(COc1ccc(Cl)c(Cl)c1)NC12CC(NC(=O)c3ccc(C(F)F)nc3)(C1)C2 [Compound 927, N-{3-[2-(3,4-dichlorophenoxy)acetamido]bicyclo[1.1.1]pentan-1-yl}-6-(difluoromethyl)pyridine-3-carboxamide]
EC50: 50 to 250 nM

COc1cc(C(=O)NC23CC(NC(=O)COc4ccc(Cl)c(F)c4)(C2)C3)n(C)n1 [Compound 651, N-{3-[2-(4-chloro-3-fluorophenoxy)acetamido]bicyclo[1.1.1]pentan-1-yl}-3-methoxy-1-methyl-1H-pyrazole-5-carboxamide]
EC50: 50 to 250 nM

Cc1ccncc1C(=O)NC12CC(NC(=O)COc3ccc(Cl)c(Cl)c3)(C1)C2 [Compound 736, N-{3-[2-(3,4-dichlorophenoxy)acetamido]bicyclo[1.1.1]pentan-1-yl}-4-methylpyridine-3-carboxamide]
EC50: > 2000 nM

O=C(COc1ccc2c(c1)OC(F)(F)O2)NC12CC(NC(=O)c3ccccn3)(C1)C2 [Compound 400, N-(3-{2-[(2,2-difluoro-2H-1,3-benzodioxol-5-yl)oxy]acetamido}bicyclo[1.1.1]pentan-1-yl)pyridine-2-carboxamide]
EC50: 250 to 1000 nM

COc1ccc(C(=O)NC23CC(NC(=O)COc4ccc(Cl)c(F)c4)(C2)C3)cc1F [Compound 530, N-{3-[2-(4-chloro-3-fluorophenoxy)acetamido]bicyclo[1.1.1]pentan-1-yl}-3-fluoro-4-methoxybenzamide]
EC50: 250 to 1000 nM

NC(=O)c1nccnc1C(=O)NC12CC(NC(=O)COc3ccc(Cl)c(F)c3)(C1)C2 [Compound 853, N-2-{3-[2-(4-chloro-3-fluorophenoxy)acetamido]bicyclo[1.1.1]pentan-1-yl}pyrazine-2,3-dicarboxamide]
EC50: > 2000 nM

O=C(COc1ccc(Cl)c(F)c1)NC12CC(NC(=O)c3ccncc3)(C1)C2 [Compound 186, N-{3-[2-(4-chloro-3-fluorophenoxy)acetamido]bicyclo[1.1.1]pentan-1-yl}pyridine-4-carboxamide]
EC50: 250 to 1000 nM

Cc1oncc1C(=O)NC12CC(NC(=O)COc3ccc(Cl)c(F)c3)(C1)C2 [Compound 908, N-{3-[2-(4-chloro-3-fluorophenoxy)acetamido]bicyclo[1.1.1]pentan-1-yl}-5-methyl-1,2-oxazole-4-carboxamide]
EC50: > 2000 nM

Cc1cc2c(C(=O)NC34CC(NC(=O)COc5ccc(Cl)c(F)c5)(C3)C4)nccn2n1 [Compound 561, N-{3-[2-(4-chloro-3-fluorophenoxy)acetamido]bicyclo[1.1.1]pentan-1-yl}-2-methylpyrazolo[1,5-a]pyrazine-4-carboxamide]
EC50: > 2000 nM

O=C(COc1ccc(Cl)c(F)c1)NC12CC(NC(=O)c3cnc(O)cn3)(C1)C2 [Compound 184, N-{3-[2-(4-chloro-3-fluorophenoxy)acetamido]bicyclo[1.1.1]pentan-1-yl}-5-hydroxypyrazine-2-carboxamide]
EC50: > 2000 nM

O=C(COc1ccc(Cl)c(F)c1)NC12CC(NC(=O)c3csc(-c4ccccc4)n3)(C1)C2 [Compound 339, N-{3-[2-(4-chloro-3-fluorophenoxy)acetamido]bicyclo[1.1.1]pentan-1-yl}-2-phenyl-1,3-thiazole-4-carboxamide]
EC50: < 50 nM

NC(=O)c1ccncc1C(=O)NC12CC(NC(=O)COc3ccc(Cl)c(F)c3)(C1)C2 [Compound 826, N^3-{3-[2-(4-chloro-3-fluorophenoxy)acetamido]bicyclo[1.1.1]pentan-1-yl}pyridine-3,4-dicarboxamide]
EC50: 1000 to 2000 nM

Cc1cc(C(=O)NC23CCC(NC(=O)COc4ccc(Cl)c(F)c4)(CC2)CC3O)on1 (stereo not shown) [Compound 330, N-{4-[2-(4-chloro-3-fluorophenoxy)acetamido]-2-hydroxybicyclo[2.2.2]octan-1-yl}-3-methyl-1,2-oxazole-5-carboxamide]
EC50: 50 to 250 nM

O=C(COc1ccc(Cl)c(F)c1)NC12CC(NC(=O)c3cnc(O)[nH]3)(C1)C2 [Compound 812, N-{3-[2-(4-chloro-3-fluorophenoxy)acetamido]bicyclo[1.1.1]pentan-1-yl}-2-hydroxy-1H-imidazole-5-carboxamide]
EC50: 1000 to 2000 nM

O=C(COc1ccc(Cl)c(F)c1)NC12CC(Nc3ccc(C(F)(F)F)nn3)(C1)C2 [Compound 127, 2-(4-chloro-3-fluorophenoxy)-N-(3-{[6-(trifluoromethyl)pyridazin-3-yl]amino}bicyclo[1.1.1]pentan-1-yl)acetamide]
EC50: > 2000 nM

O=C(COc1ccc(Cl)c(F)c1)NC12CCC(NC(=O)c3cscn3)(CC1)CC2O (stereo not shown) [Compound 592, N-{4-[2-(4-chloro-3-fluorophenoxy)acetamido]-3-hydroxybicyclo[2.2.2]octan-1-yl}-1,3-thiazole-4-carboxamide]
EC50: 50 to 250 nM

O=C(COc1ccc(Cl)c(Cl)c1)NC12CC(NC(=O)c3ccc(CO)cn3)(C1)C2 [Compound 160, N-{3-[2-(3,4-dichlorophenoxy)acetamido]bicyclo[1.1.1]pentan-1-yl}-5-(hydroxymethyl)pyridine-2-carboxamide]
EC50: 250 to 1000 nM

O=C(COc1ccc(Cl)c(F)c1)NC12CC(NC(=O)c3ccn4nccc4n3)(C1)C2 [Compound 631, N-{3-[2-(4-chloro-3-fluorophenoxy)acetamido]bicyclo[1.1.1]pentan-1-yl}pyrazolo[1,5-a]pyrimidine-5-carboxamide]
EC50: 50 to 250 nM

O=C(COc1ccc(Cl)c(F)c1)NC12CC(NC(=O)c3ccnc(C(=O)O)c3)(C1)C2 [Compound 280, 4-({3-[2-(4-chloro-3-fluorophenoxy)acetamido]bicyclo[1.1.1]pentan-1-yl}carbamoyl)pyridine-2-carboxylic acid]
EC50: > 2000 nM

COCn1ccc(C(=O)NC23CC(NC(=O)COc4ccc(Cl)c(F)c4)(C2)C3)n1 [Compound 260, N-{3-[2-(4-chloro-3-fluorophenoxy)acetamido]bicyclo[1.1.1]pentan-1-yl}-1-(methoxymethyl)-1H-pyrazole-3-carboxamide]
EC50: 250 to 1000 nM

O=C(COc1ccc(Cl)c(F)c1)NC12CC(NC(=O)c3cc(N4CC(O)C4)ccn3)(C1)C2 [Compound 179, N-{3-[2-(4-chloro-3-fluorophenoxy)acetamido]bicyclo[1.1.1]pentan-1-yl}-4-(3-hydroxyazetidin-1-yl)pyridine-2-carboxamide]
EC50: 250 to 1000 nM

O=C(COc1ccc(Cl)c(F)c1)NC12CC(NC(=O)c3cnc(-c4ccccc4)o3)(C1)C2 [Compound 344, N-{3-[2-(4-chloro-3-fluorophenoxy)acetamido]bicyclo[1.1.1]pentan-1-yl}-2-phenyl-1,3-oxazole-5-carboxamide]
EC50: < 50 nM
